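Exposure lasted 48 hours, with cells grown in 96-well plates and compounds tested at five concentrations. GI50 marks 50% less growth. The concentration for full growth arrest is given as TGI.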
Key:
Assay in all cases: NCI tumour cell line growth inhibition, 48 h
NCI-H226 lung = system: NCI-H226 lung
NCI-H23 lung = system: NCI-H23 lung
NCI-H460 lung = system: NCI-H460 lung
NCI-H522 lung = system: NCI-H522 lung
NCI/ADR-RES ovarian = system: NCI/ADR-RES ovarian
OVCAR-3 ovarian = system: OVCAR-3 ovarian
OVCAR-4 ovarian = system: OVCAR-4 ovarian
OVCAR-5 ovarian = system: OVCAR-5 ovarian
OVCAR-8 ovarian = system: OVCAR-8 ovarian
PC-3 prostate = system: PC-3 prostate
RPMI-8226 leukemia = system: RPMI-8226 leukemia
RXF 393 renal = system: RXF 393 renal
SF-268 CNS = system: SF-268 CNS
SF-295 CNS = system: SF-295 CNS
SF-539 CNS = system: SF-539 CNS
SK-MEL-2 melanoma = system: SK-MEL-2 melanoma
SK-MEL-28 melanoma = system: SK-MEL-28 melanoma
SK-MEL-5 melanoma = system: SK-MEL-5 melanoma
SK-OV-3 ovarian = system: SK-OV-3 ovarian
SN12C renal = system: SN12C renal
SNB-19 CNS = system: SNB-19 CNS
SNB-75 CNS = system: SNB-75 CNS
SR leukemia = system: SR leukemia
SW-620 colon = system: SW-620 colon
T-47D breast = system: T-47D breast
TK-10 renal = system: TK-10 renal
U251 CNS = system: U251 CNS
UACC-257 melanoma = system: UACC-257 melanoma
UACC-62 melanoma = system: UACC-62 melanoma
UO-31 renal = system: UO-31 renal

Work on `Cn1cc(-c2nnc(N)nc2-c2c[nH]c3ccccc23)c2cc(Br)cnc21` yielded a GI50 (NCI-H226 lung) of 12.2 µM, a TGI (NCI-H226 lung) of 36.7 µM and a GI50 (NCI-H23 lung) of 13.9 µM. For the same compound, the TGI (NCI-H23 lung) was 36 µM, the GI50 (NCI-H460 lung) was 5.02 µM and the TGI (NCI-H460 lung) was 21 µM. For the same compound, the GI50 (NCI-H522 lung) was 3.78 µM, the TGI (NCI-H522 lung) was 21.6 µM and the GI50 (NCI/ADR-RES ovarian) was 10.7 µM. It also gave a TGI (NCI/ADR-RES ovarian) of 36.3 µM, a GI50 (OVCAR-3 ovarian) of 11.1 µM and a TGI (OVCAR-3 ovarian) of 23.4 µM. For the same compound, the GI50 (OVCAR-4 ovarian) was 7.09 µM, the TGI (OVCAR-4 ovarian) was 21.2 µM and the GI50 (OVCAR-5 ovarian) was 14.6 µM. For the same compound, the TGI (OVCAR-5 ovarian) was 29.8 µM, the GI50 (OVCAR-8 ovarian) was 12.5 µM and the TGI (OVCAR-8 ovarian) was 28.9 µM. For the same compound, the GI50 (PC-3 prostate) was 8.26 µM, the TGI (PC-3 prostate) was greater than 100 µM and the GI50 (RPMI-8226 leukemia) was 6.43 µM. For the same compound, the TGI (RPMI-8226 leukemia) was greater than 100 µM, the GI50 (RXF 393 renal) was 3.37 µM and the TGI (RXF 393 renal) was 20.3 µM. It also gave a GI50 (SF-268 CNS) of 10.7 µM, a TGI (SF-268 CNS) of 27.3 µM and a GI50 (SF-295 CNS) of 4.07 µM. For the same compound, the TGI (SF-295 CNS) was 17.5 µM, the GI50 (SF-539 CNS) was 10.7 µM and the TGI (SF-539 CNS) was 22.6 µM. It also gave a GI50 (SK-MEL-2 melanoma) of 12.3 µM, a TGI (SK-MEL-2 melanoma) of 27.1 µM and a GI50 (SK-MEL-28 melanoma) of 10.9 µM. It also gave a TGI (SK-MEL-28 melanoma) of 22.8 µM, a GI50 (SK-MEL-5 melanoma) of 6.84 µM and a TGI (SK-MEL-5 melanoma) of 19.8 µM. The GI50 (SK-OV-3 ovarian) was 16.6 µM, the TGI (SK-OV-3 ovarian) was 35.6 µM and the GI50 (SN12C renal) was 10.2 µM. For the same compound, the TGI (SN12C renal) was 22.2 µM, the GI50 (SNB-19 CNS) was 12.2 µM and the TGI (SNB-19 CNS) was 24.8 µM. For the same compound, the GI50 (SNB-75 CNS) was 2.7 µM, the TGI (SNB-75 CNS) was 15.6 µM and the GI50 (SR leukemia) was 1.54 µM. It also gave a TGI (SR leukemia) of 71.2 µM, a GI50 (SW-620 colon) of 10 µM and a TGI (SW-620 colon) of 23.3 µM. The GI50 (T-47D breast) was 4.12 µM, the TGI (T-47D breast) was 24.9 µM and the GI50 (TK-10 renal) was 12.8 µM. The TGI (TK-10 renal) was 26.8 µM, the GI50 (U251 CNS) was 10.5 µM and the TGI (U251 CNS) was 23.2 µM. The GI50 (UACC-257 melanoma) was 13.4 µM, the TGI (UACC-257 melanoma) was 27.1 µM and the GI50 (UACC-62 melanoma) was 3.14 µM. It also gave a TGI (UACC-62 melanoma) of 16.8 µM and a TGI (UO-31 renal) of 14.8 µM.
